Laboratory results reported in article PMC12350525, “Investigation of the inhibitory effects of the telomere-targeted compounds on glutathione S-transferase P1” (Naunyn-Schmiedeberg's Archives of Pharmacology, 2025).
Read-outs that look alike come from different tables or passages of the source.

How the values were obtained:
recombinant human GSTP1 = biological target: T1, recombinant human GSTP1 (Homo sapiens, UniProt P09211); experiment: GSTP1 enzyme inhibition assay (GSH-CDNB conjugation, spectrophotometric); format: biochemical
T1 construct: made in house; host or cells: E. coli XL-1 Blue
T1 sequence (P09211 whole entry): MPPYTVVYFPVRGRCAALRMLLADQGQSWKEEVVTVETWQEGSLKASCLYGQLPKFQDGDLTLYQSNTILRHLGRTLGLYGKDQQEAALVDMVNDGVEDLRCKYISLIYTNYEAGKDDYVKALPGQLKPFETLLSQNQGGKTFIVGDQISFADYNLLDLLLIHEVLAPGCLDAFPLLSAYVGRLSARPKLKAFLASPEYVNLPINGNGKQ
Protocol: Glutathione S-transferase P1 (GSTP1) plays a significant role in cancer progression and chemotherapy resistance, with its overexpression diminishing chemotherapeutic efficacy across various tumor types. […] Enzyme inhibition assays with recombinant human GSTP1, kinetic analysis, molecular docking, and molecular dynamic simulations were employed. Enzymatic assays were performed in 0.1 M phosphate buffer (pH 6.5) at 30 °C, containing 1 mM EDTA, 1 mM GSH, and 1 mM CDNB. […] Graphical abstract
The human GST P1-1 gene from a K562 erythroleukemia cDNA library (GSTP1*A allele) was cloned into the pKXHP1 plasmid. This plasmid was transformed into E. coli XL-1 Blue cells via heat shock, grown on agar plates, and a single colony was cultured overnight at 37 °C in 2YT medium. […]
The enzyme activity of GSTP1 was measured using a spectrophotometric assay based on the conjugation of glutathione (GSH) to 1-chloro-2,4-dinitrobenzene (CDNB). […] The progress of the reaction was monitored by measuring the absorbance change at 340 nm, indicating the formation of the GSH-CDNB conjugate. Absorbance readings were recorded over 5 min using a SpectraMax M2 microplate reader. Percentage inhibition at each concentration was calculated, and IC₅₀ values were determined using GraphPad Prism 8.4. […]

GSTP1-1 = biological target: T2, GSTP1-1 (Homo sapiens, UniProt P09211); experiment: Kinetic inhibition studies with GSTP1 (Lineweaver-Burk, varied GSH or CDNB); format: biochemical
T2 construct: made in house; host or cells: E. coli XL-1 Blue
T2 sequence (P09211 whole entry): as above
Protocol: To assess the inhibition type and calculate the inhibition constant (Ki) values for the compounds, kinetic inhibition studies were performed with GSTP1.
By varying the concentration of one substrate while keeping the other at near-saturation, we assessed how each inhibitor interacted with GSTP1 under various substrate conditions. Lineweaver-Burk plots were used to analyze these interactions, allowing for the determination of the inhibition type (e.g., competitive, non-competitive, or mixed) and the Ki values for each compound. These kinetic parameters were calculated using GraphPad Prism, providing a comprehensive understanding of how the inhibitors influence GSTP1 enzymatic activity.
These plots were generated by varying the concentrations of substrates GSH and CDNB with different inhibitor concentrations.

GSTP1 = conditions: covalent binding to tyrosine residues on GSTP1; ref Louie et al. 2016; cited from earlier work
[1] = CDNB as varied substrate, GSH near-saturating, read-out: Ki CDNB
[2] = GSH as varied substrate, CDNB near-saturating, read-out: Ki GSH

| IC50 (recombinant human GSTP1; as restated in the discussion) [nM] | Type of inhibition CDNB (GSTP1-1; CDNB as varied substrate) | Ki (GSTP1-1; [1]) [nM] | Type of inhibition GSH (GSTP1-1; GSH as varied substrate) | Ki (GSTP1-1; [2]) [nM] | Type of inhibition GSH (GSTP1-1; GSH as varied substrate, listed as dimer form) | IC50 (recombinant human GSTP1; 0.1 M phosphate buffer pH 6.5, 30 °C, 1 mM EDTA, 1 mM GSH, 1 mM CDNB, 2.5% DMSO) [nM] | Compound | IC50 (GSTP1) [nM] |
| --- | --- | --- | --- | --- | --- | --- | --- | --- |
| 339 | Competitive | 723 | Mixed | 972 | mixed-type |  | Nc1nc(SSc2nc(N)nc3c2ncn3C2CC(O)C(CO)O2)c2ncn(C3CC(O)C(CO)O3)c2n1 (stereo not drawn) [6-thio-2′-dG-Dimer] |  |
|  | mixed-type | 11400 | Noncompetitive | 12300 |  | 15100 | Nc1nc2c(ncn2[C@H]2C[C@H](O)[C@@H](CO)O2)c(=S)[nH]1 [Compound 6-thio-dG, 6-thio-2′-deoxyguanosine] |  |
|  |  |  |  |  |  |  | C#CCCCN(c1nc(Cl)nc(Cl)n1)[C@H](CC(C)C)C(=O)OC [LAS17] | 500 |
